Assays:
PmeR = target: T1, PmeR (Pseudomonas syringae group genomosp. 3, UniProt Q87X86); experiment: EMSA, release of PmeR from […]-labelled operator DNA; format: binding; conditions: 6.25 nM PmeR, 1.5 nM pmeR-mexA intergenic DNA probe, pH 8.0, 25 °C; lowest complete-release concentration in a dilution series, not a Kd or IC50
T1 construct: gene PSPTO_4302; full-length coding region (672 bp), N-terminal His tag, pET-28a, E. coli BL21(DE3), codon-optimized; nickel column; tag removal not mentioned

[1] = target: T2, PmeR (TetR-like regulator) (Pseudomonas syringae strain PtoDC3000) (UniProt Q87X86); experiment: competition; conditions: 25 mM Tris-acetate pH 8.0, 8 mM Mg-acetate, 10 mM KCl, 1 mM DTT, 460 uM HCl ([…]
T2 sequence: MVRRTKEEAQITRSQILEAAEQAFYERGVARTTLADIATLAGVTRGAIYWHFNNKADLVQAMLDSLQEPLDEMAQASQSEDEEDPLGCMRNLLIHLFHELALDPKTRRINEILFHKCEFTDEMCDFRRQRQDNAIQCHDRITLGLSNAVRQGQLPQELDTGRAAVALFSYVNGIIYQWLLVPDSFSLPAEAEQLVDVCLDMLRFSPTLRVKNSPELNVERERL

Compound	concentration sufficient for complete shift to unbound DNA (PmeR)	binding [1]
N[C@@H](CCCCNC(=O)Cc1c[nH]c2ccccc12)C(=O)O [IAA-Lys]	750 µM	–
CGGAATTCGGTGCGACGAACCATGGCAATAAGACCTCAAAAGATTCACCTCATGCGTGCATCTGGTGCATGCCTTGAGGTATGACCGGGCGGCATTTGTCTCGCCTTGTCCCGAACTGGCATTCAGCACCTTGAATAGTGGCCGAATGCGCAAAGCGGGTGTTTACAAACAACCGCGAATGTAAGTATATTCCTTAGCATGCTACTTATCTAGCCGAAATATTTTTTAACACTTCAACGTACTGTTGAGAAAACAGGCTCCTGCCCCGAGGATCTTCGGTACCCC (double strand) [pmeR-mexA intergenic region probe]	–	binds
